Laboratory results published in patent US20230340012A1, “NATURAL AND SYNTHETIC COMPOUNDS FOR TREATING CANCER AND OTHER DISEASES” (PACIFIC ARROW LIMITED, priority 2009, published 2023).

Test system: HepG2 cells
Test: Combined effect of anti-DR5 and Tig-R in HepG2 cells, MTT
Assay type: cell-based, human
Protocol: Cells Culture: HepG2 cells (liver cancer cells) were cultured in DMEM medium supplemented with 10% FBS, antibiotics (Pen Strep) and L-Glutamine. Cells were incubated in a 37° C., 5% CO2 incubator.
Antibody: Antibody against Human TRAIL R2/TNFRSF 10B, (from R&D Systems cat# MAB631-100).
Drug: Tig-R (5 and 7.5 ug/ml in culture medium).
Treatment. Cells in log-growth phase were used. Cells were plated in 96-welled plate with 10 K/well over night before treatment.
Antibodies are serially diluted with medium (started from 1 ug/ml) before adding to cell culture and incubated for 2 days.
For combination studies, Tig-R (5 ug/ml or 7.5 ug/ml) were added together with antibody. After a treatment for 2 days, the quantity of live cells is determined with MTT assay*. The percentage of cell growth with drugs was determined by comparing to those of no-drug (DMSO) control.
MTT assay. Cell growth activity was determined by MTT assay (Carmichael et al.,). […] The formation of formazan was dissolved with DMSO and the O.D. at 490 nm was measured by an ELISA reader. The MTT level of cells before drug-treatment was also measured (T0). The % cell-growth (%G) is calculated as: %G = (TD-T0 / TC-T0) × 100 (1) where TC or TD represent O.D. readings of control or drug-treated cells.
When T0 > TD, then the negative growth (cytotoxicity) is expressed as - % of the control and is calculated as: - %G = (TD-T0 / T0) × 100.

For “24,28-O-Tigloyl-3β,16α, 21β, 22a, 24β, 28-hexahydroxyolean-12-ene [Tig-R]”, the “combined effect with anti-DR5 antibody” value (HepG2, Tig-R 5 or 7.5 ug/ml) was “synergistic” and the “inhibition of HepG2 cells' growth” value (Tig-R alone 5 ug/ml, 2 days) was 15-20%.
